The values that follow are results of earlier work, collected in US20070281911A1, “Use of Adefovir or Tenofovir for Inhibiting Mmtv-Like Viruses Involved in Breast Cancer and Primary Biliary Cirrhosis” (GILEAD SCIENCES INC., priority 2004, published 2007).

The series addresses MMTV RT enzyme (Mouse mammary tumor virus, UniProt P03365).

MMTV RT enzyme, sequence (P03365 861-1437): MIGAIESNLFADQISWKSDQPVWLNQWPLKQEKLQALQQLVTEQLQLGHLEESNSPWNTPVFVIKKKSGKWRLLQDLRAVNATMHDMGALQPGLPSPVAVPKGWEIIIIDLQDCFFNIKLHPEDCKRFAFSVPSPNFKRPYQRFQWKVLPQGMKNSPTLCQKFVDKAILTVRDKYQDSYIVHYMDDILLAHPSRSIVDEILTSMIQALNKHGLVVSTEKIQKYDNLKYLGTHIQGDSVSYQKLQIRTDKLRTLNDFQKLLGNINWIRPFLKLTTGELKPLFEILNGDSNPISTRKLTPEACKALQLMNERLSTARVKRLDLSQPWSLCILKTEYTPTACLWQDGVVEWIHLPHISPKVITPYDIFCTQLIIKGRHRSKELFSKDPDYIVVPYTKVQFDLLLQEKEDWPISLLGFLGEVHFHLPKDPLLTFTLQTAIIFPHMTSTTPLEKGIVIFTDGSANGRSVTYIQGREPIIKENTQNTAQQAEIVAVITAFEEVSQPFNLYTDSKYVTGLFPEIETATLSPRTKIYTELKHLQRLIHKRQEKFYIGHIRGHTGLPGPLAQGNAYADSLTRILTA

In the case of `Cc1cn([C@H]2C[C@H](N=[N+]=[N-])[C@@H](COP(=O)(O)OP(=O)(O)OP(=O)(O)O)O2)c(=O)[nH]c1=O` [AZTppp], the “direct inhibition of MMTV RT enzyme compared with HIV RT enzyme” value is given as “as efficiently as the HIV RT enzyme”.
